Earlier results in patent publication US6486349B1, “Amide therapeutics and methods for treating inflammatory bowel disease” (Centaur Pharmaceuticals, Inc., priority 1999, dated 2002).

System: senescence-accelerated mice

## CC(C)(C)/[N+]([O-])=C/c1ccccc1 [PBN, α-phenyl-t-butyl nitrone]
  increase of the life span: one third
